Laboratory results as given in ChEMBL document CHEMBL3243928, “N-(2,4,5-Trihydroxyphenehtyl)normetazocine, a potential irreversible inhibitor of the narcotic receptor” (J Med Chem, 1977).
Activity calls are given as the source filed them. No cut-off for these calls is given here.

How the values were obtained:
Mus musculus [1] = experiment: Antinociceptive activity in mouse at 50 mg/kg, sc by hot-plate assay; type: functional, organism-based; parameters: dose 50 mg/kg
Mus musculus [2] = experiment: Inhibition of norepinephrine release in mouse heart at >150 umol/kg, sc administered 60 mins before [3H]-norepinephrine challenge; type: functional, organism-based
Mus musculus [3] = experiment: Toxicity in mouse at 80 mg/kg, iv; type: organism-based; parameters: dose 80 mg/kg, route intravenous; details: in vivo
NG108-15 [4] = experiment: Antagonist activity at opiate receptor in mouse/rat NG108-15 cells assessed as inhibition of adenylate cyclase activity at 2 x 10^-4 M after 3 mins; type: cell-based
NG108-15 [5] = experiment: Antagonist activity at opiate receptor in mouse/rat NG108-15 cells assessed as inhibition of adenylate cyclase activity at 10^-3 M after 3 mins; type: cell-based
Mus musculus [6] = experiment: Inhibition of norepinephrine release in sc dosed mouse heart administered 60 mins before [3H]-norepinephrine challenge; type: functional
Mus musculus [7] = experiment: Ratio of morphine to compound for analgesic activity in ip dosed mouse; type: functional
NG108-15 [8] = experiment: Antagonist activity at opiate receptor in mouse/rat NG108-15 cells assessed as inhibition of adenylate cyclase activity at 10^-7 M after 3 mins; type: cell-based
[9] = target: Opioid receptor (Rattus norvegicus) (UniProt P33533+P34975+P33535); experiment: Ratio of morphine to compound for binding affinity to rat brain opiate receptor
Mus musculus [10] = experiment: Toxicity in mouse at 5 mg/kg, iv; type: organism-based; parameters: dose 5 mg/kg, route intravenous; details: in vivo
Mus musculus [11] = experiment: Toxicity in iv dosed mouse; type: organism-based; details: in vivo
[12] = Mus musculus, sc, read-out: ED50

Opioid receptor (Rattus norvegicus), sequence (P33533 whole entry, looked up): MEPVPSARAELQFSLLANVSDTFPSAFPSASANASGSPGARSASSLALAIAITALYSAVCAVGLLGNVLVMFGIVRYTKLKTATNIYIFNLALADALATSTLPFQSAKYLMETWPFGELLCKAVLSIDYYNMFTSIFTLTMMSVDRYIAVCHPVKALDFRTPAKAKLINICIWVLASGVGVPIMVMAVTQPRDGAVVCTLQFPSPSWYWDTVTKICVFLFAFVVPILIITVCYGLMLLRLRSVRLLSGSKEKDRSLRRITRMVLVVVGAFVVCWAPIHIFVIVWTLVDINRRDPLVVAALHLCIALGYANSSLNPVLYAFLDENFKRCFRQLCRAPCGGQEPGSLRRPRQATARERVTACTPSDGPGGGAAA
Opioid receptor (Rattus norvegicus), sequence (P33535 whole entry, looked up): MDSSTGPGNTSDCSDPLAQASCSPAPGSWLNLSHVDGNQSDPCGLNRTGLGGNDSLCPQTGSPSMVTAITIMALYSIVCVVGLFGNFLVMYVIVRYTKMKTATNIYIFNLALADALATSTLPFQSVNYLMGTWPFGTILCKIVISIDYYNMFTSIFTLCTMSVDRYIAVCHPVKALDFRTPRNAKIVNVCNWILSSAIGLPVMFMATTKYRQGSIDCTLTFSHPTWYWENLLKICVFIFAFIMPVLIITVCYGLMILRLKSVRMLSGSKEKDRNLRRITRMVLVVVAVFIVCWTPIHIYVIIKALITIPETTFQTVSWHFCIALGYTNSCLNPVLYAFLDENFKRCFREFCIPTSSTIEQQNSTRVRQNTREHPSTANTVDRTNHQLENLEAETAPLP
Opioid receptor (Rattus norvegicus), sequence (P34975 whole entry, looked up): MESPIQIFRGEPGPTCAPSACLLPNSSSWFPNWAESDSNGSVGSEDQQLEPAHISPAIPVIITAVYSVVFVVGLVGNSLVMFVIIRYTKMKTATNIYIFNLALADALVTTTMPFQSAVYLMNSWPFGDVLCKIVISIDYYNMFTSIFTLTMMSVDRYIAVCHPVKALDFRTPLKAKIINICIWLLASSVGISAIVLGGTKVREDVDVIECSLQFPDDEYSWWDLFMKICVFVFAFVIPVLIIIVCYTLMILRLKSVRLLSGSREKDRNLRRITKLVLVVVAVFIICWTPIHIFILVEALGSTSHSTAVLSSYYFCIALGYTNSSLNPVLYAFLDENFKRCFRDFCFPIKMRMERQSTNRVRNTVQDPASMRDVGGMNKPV

CC1C2Cc3ccc(O)cc3C1(C)CCN2CCc1cc(O)c(O)cc1O.I (stereo not drawn)
Activity (Mus musculus [1]): Active | inhibition (Mus musculus [2]): inactive | Activity (Mus musculus [3]): Non-toxic | inhibition (NG108-15 [4]): inactive | inhibition (NG108-15 [5]): Active | ED50 (Mus musculus [6]): 0 µmol/kg

COc1ccc(CCN2CCC3(C)c4cc(O)ccc4CC2C3C)cc1 (stereo not drawn)
Ratio (Mus musculus [7]): 8

NCCc1cc(O)c(O)cc1O [OXIDOPAMINE]
ED50 (Mus musculus [6]; [12]): 6.8 µmol/kg

CN1CC[C@]23c4c5ccc(O)c4O[C@H]2[C@@H](O)C=C[C@H]3[C@H]1C5
inhibition (NG108-15 [8]): Active

CC(N)Cc1ccc(O)cc1 (stereo not drawn) [HYDROXYAMPHETAMINE]
ED50 (Mus musculus [6]; [12]): 13 µmol/kg

CN(C)CCc1ccc(O)cc1 [HORDENINE]
ED50 (Mus musculus [6]; [12]): > 400 µmol/kg

Nc1ccc(CCN2CC[C@]34CCCC[C@H]3[C@H]2Cc2ccc(O)cc24)cc1
Ratio [9]: > 10

C[C@H]1C2Cc3ccc(O)cc3C1(C)CCN2 (stereo partly drawn)
LD100 (Mus musculus [10]): 10 mg/kg | Activity (Mus musculus [11]): Toxic

CC1C2Cc3ccc(O)cc3C1(C)CCN2CCc1ccc(N)cc1 (stereo not drawn)
Ratio (Mus musculus [7]): 20

COC(=O)[C@H]1[C@@H](OC(=O)c2ccccc2)C[C@@H]2CC[C@H]1N2C [COCAINE]
ED50 (Mus musculus [6]): 0 µmol/kg

CC1C2Cc3ccc(O)cc3C1(C)CCN2CCc1ccccc1 (stereo not drawn) [PHENAZOCINE]
Ratio (Mus musculus [7]): 10

CC(N)Cc1cc(O)c(O)cc1O (stereo not drawn)
ED50 (Mus musculus [6]; [12]): 4.2 µmol/kg
